According to US4039666A, “Anticonvulsant phenylsilanes” (Dow Corning Corporation, priority 1976, dated 1977):
Where two headings read alike, the source gives them in different places.

How the values were obtained:
mice [1] = test: Protection vs. pentylenetetrazol clonic convulsions; format: in vivo; settings: Table I, 316 mg/kg test compound, oral in sesame oil, pentylenetetrazol 80 mg/kg s.c., n.p. = no protection observed; for responders at 316 mg/kg: Mus musculus, read-out: Protection vs. Pentylenetetrazol (numbers of mice protected from clonic convulsion/number tested) (converted)
Experimental: (§1) ^1 The test silane was administered orally in sesame oil vehicle at
^3 Pentylenetetrazol 80 mg/kg s.c. produces clonic convulsions in 90%
of control mice. Values in table are the numbers of mice protected from
clonic convulsion/number tested when dosed with 316 mg/kg test compound.

mice [2] = test: Potentiation of hexobarbital sleep time (relative sedative activity); format: in vivo, mice (male, Carworth CF1 strain); settings: Table I; 316 mg/kg test compound oral, 90 minutes before hexobarbital 100 mg/kg i.p.
Experimental: As a test of relative sedative activity of the various silanes, the ability of each to potentiate the action of hexobarbital was studied. For each silane, two groups of male mice (Carworth CF1 strain) were utilized as test animals. Two groups of mice (six/group) were used, one group was orally dosed with 316 mg./kg. of the test silane in sesame oil carrier 90 minutes before administration of hexobarbital. Hexobarbital was administered by intraperitoneal injection of 100 mg./kg. in saline carrier. The time from loss of the righting reflex to recovery of the righting reflex was recorded as sleep time. Potentiation of hexobarbital of the test silane is the ratio of the mean sleep time by the group of test animals dosed with the silane divided by the mean sleep time of the control group not dosed with silane.
^4 Potentiation of hexobarbital - values are the ratios of sleep time
of animals dosed with 316 mg/kg test compound plus 100 mg/kg hexobarbital
to the sleep times of animals dosed with hexobarbital alone.

mice [3] = test: Electroshock test (Maximal Electroshock Test, M.E.S.), inhibition of tonic extension of hind limbs; format: in vivo, mice (adult male, Carworth CF 1 strain); settings: for ED50: Mus musculus
Experimental: The electroshock test procedure was used to determine anticonvulsant activities of diphenylmethylsilanol. Adult male mice (Carworth CF 1 strain) were utilized as test animals. […] Seizure protection was scored as inhibition of tonic extension. Groups of mice (six/group) were dosed orally with varying amounts of diphenylmethylsilanol in a sesame oil suspension. The dosages ranged from 10 to 1000 mg./kg. and the train of electric shocks was applied 2, 4 and 6 hours after dosing. The effective dose to prevent convulsions in half the animals (ED50) was determined at 2, 4 and 6 hours to be 52, 63, 100 mg/kg, respectively, and the 95 percent CI (confidence interval) was 23 to 114 mg./kg.; 27 to 141 mg./kg.; 47 to 212 mg./kg.
The electric shock test procedure was also used to determine anticonvulsant activities of phenylmethyldimethoxysilane. Adult male mice (Carworth CF 1 strain) were utilized as test animals. […] Seizure protection was scored as in Example 1. Groups of mice ten/group) were dosed orally with varying amounts of phenylmethyldimethoxysilane in a sesame oil solution. The dosages ranged from 25 to 200 mg./kg. and the train of electric shocks was applied 1/2, 1, 11/2, 2 and 3 hours after dosing. The effective dose to prevent convulsions in half the animals (ED50) was determined at 1/2, 1, 11/2, 2 and 3 hours to be 52, 86, 64, 82 and 90 mg./kg., respectively. Utilizing the same electroshock test procedure as set forth in the first paragraph of this example, groups of mice (ten/group) were dosed intraperitoneally with varying amounts of phenylmethyldimethoxysilane in a sesame oil solution. The dosages ranged from 25 to 200 mg./kg. and the train of electric shocks was applied 1/2, 1, 11/2, 2 and 3 hours after dosing. The effective dose to prevent convulsions in half the animals (ED50) was determined at 1/2, 1, 11/2, 2 and 3 hours to be 45, 65, 52, 51 and 70 mg./kg., respectively.
The electric shock test used in Example 1 and 2 was used in determining the anticonvulsant activities of several other silanes.
as §1
^2 M.E.S. - Maximal Electroshock Test - ED50 is dose calculated
to protect 50% of mice from tonic extensor convulsion. The dosages ranged

Acute oral LD50 = format: in vivo, mice (male, 25 gm.); settings: mouse, in vivo; Table II; male mice, oral in sesame oil, highest dose 5000 mg/kg, observed 14 days, Finney's method; read-out: LD50 (95% Confidence Interval)
Experimental: (§2) ^1 Male mice, 25 gm. were used. Each compound was
(§3) given orally in sesame oil at doses ranging from
(§4) highest dose was 5000 mg/kg. The mice were
(§5) observed for 14 days and the number of deaths
(§6) was recorded. LD50 values were calculated by […]

mice [4] = test: Acute oral LD50; format: in vivo, mice (male, 25 gm.); settings: Table II footnote 2; oral in sesame oil, up to 5000 mg/kg, 14 days
Experimental: as §2, §3, §4, §5, §6

[5] = Table I, oral, sesame oil, 2 hours after dosing, n.p. = no protection observed, read-out: MES ED50
[6] = Table I, oral, sesame oil, 4 hours after dosing, read-out: MES ED50
[7] = Table I, oral, sesame oil, 6 hours after dosing, read-out: MES ED50

| Structure (SMILES) | Protection vs. Pentylenetetrazol (numbers of mice protected from clonic convulsion/number tested) (mice [1]) | Potentiation of Hexobarbital (ratio of sleep time with test compound to hexobarbital alone) (mice [2]) | ED50 (mice [3]; [5]) | ED50 (mice [3]; [6]) | ED50 (mice [3]; [7]) | responders at 316 mg/kg (mice [1]) | also measured |
| --- | --- | --- | --- | --- | --- | --- | --- |
| CCO[Si](OCC)(OCC)c1ccccc1 [.phi.Si(OCH2 CH3)3] | n.p. | 2.1 | 170 mg/kg | 31 mg/kg | 220 mg/kg |  | LD50 at 336 h (Acute oral LD50): 5140 mg/kg |
| C[Si](O)(c1ccccc1)c1ccccc1 [diphenylmethylsilanol] |  | 1.5 | 52 mg/kg | 63 mg/kg | 100 mg/kg | 50% | ED50 (mice [3]; Example 1, oral, sesame oil suspension, 2 hours after dosing, 95 percent CI 23 to 114 mg./kg., six mice/group, read-out: effective dose to prevent convulsions in half the animals (ED50)): 52 mg/kg; ED50 (mice [3]; Example 1, oral, sesame oil suspension, 4 hours after dosing, 95 percent CI 27 to 141 mg./kg., six mice/group, read-out: effective dose to prevent convulsions in half the animals (ED50)): 63 mg/kg; ED50 (mice [3]; Example 1, oral, sesame oil suspension, 6 hours after dosing, 95 percent CI 47 to 212 mg./kg., six mice/group, read-out: effective dose to prevent convulsions in half the animals (ED50)): 100 mg/kg |
| CCO[Si](C)(C)c1ccccc1 [drawing 8; R1=CH3; R2=CH3; X=OC2 H5] |  | > 1.3 | 200 mg/kg | 213 mg/kg | 350 mg/kg | 33.3% |  |
| C[Si](C)(O)c1ccccc1 [drawing 8; R1=CH3; R2=CH3; X=OH] |  | 2.7 | 118 mg/kg | 135 mg/kg | 110 mg/kg | 33.3% |  |
| O[Si](c1ccccc1)(c1ccccc1)c1ccccc1 [drawing 9; X=OH] | n.p. | 1.9 | 105 mg/kg | 60 mg/kg | 110 mg/kg |  |  |
| CCO[Si](CC)(OCC)c1ccccc1 [drawing 10; R1=C2 H5; X=OC2 H5] |  | 1.8 | 150 mg/kg | 180 mg/kg | 64 mg/kg | 66.7% |  |
| CC[Si](O)(O)c1ccccc1 [drawing 10; R1=C2 H5; X=OH] |  | 1.7 | 120 mg/kg | 160 mg/kg |  | 100% |  |
| CCO[Si](C)(OCC)c1ccccc1 [drawing 10; R1=CH3; X=OC2 H5] | n.p. | 1.1 | 180 mg/kg | 31 mg/kg | 220 mg/kg |  |  |
| CC(C)O[Si](C)(OC(C)C)c1ccccc1 [drawing 10; R1=CH3; X=OCH(CH3)2] |  | 1.8 | 94 mg/kg | 84 mg/kg | 41 mg/kg | 33.3% |  |
| C[Si](O)(O)c1ccccc1 [drawing 10; R1=CH3; X=OH, phenylmethylsilanediol] |  | 1.8 | 80 mg/kg | 110 mg/kg | 80 mg/kg | 33.3% |  |
| CC(=O)O[Si](C)(OC(C)=O)c1ccccc1 [drawing 10; R1=CH3; X=drawing 11] | n.p. | 1.8 | 200 mg/kg | 125 mg/kg | 142 mg/kg |  |  |
| C=C[Si](OCC)(OCC)c1ccccc1 [drawing 10; R1=CHCH2; X=OC2 H5] |  | 0.9 | 170 mg/kg | 200 mg/kg | 200 mg/kg | 16.7% |  |
| CO[Si](OC)(OC)c1ccccc1 [drawing 12; X=OCH3] | n.p. | 1.3 | 560 mg/kg | 300 mg/kg | 160 mg/kg |  |  |
| CC(C)O[Si](OC(C)C)(OC(C)C)c1ccccc1 [drawing 12; X=OCH(CH3)2] | n.p. | 2.1 |  | > 1000 mg/kg | 800 mg/kg |  | MES ED50 (mice [3]; Table I, oral, sesame oil, 2 hours after dosing, n.p. = no protection observed): n.p. |
| CCO[Si](C)(C)c1ccccc1 [drawing 14] |  |  |  |  |  |  | LD50 at 336 h (Acute oral LD50): 5380 mg/kg |
| C[Si](O)(c1ccccc1)c1ccccc1 [drawing 15] |  |  |  |  |  |  | LD50 at 336 h (Acute oral LD50): > 5000 mg/kg; deaths observed at any dose level used (mice [4]): No deaths were observed |
| CO[Si](C)(OC)c1ccccc1 [phenylmethyldimethoxysilane] |  | 1.2 | 56 mg/kg | 50 mg/kg | 106 mg/kg | 33.3% | ED50 (mice [3]; 0.5 h, Example 2, oral, sesame oil solution, 1/2 hour after dosing, ten mice/group, read-out: effective dose to prevent convulsions in half the animals (ED50)): 52 mg/kg; ED50 (mice [3]; 1.5 h, Example 2, oral, sesame oil solution, 11/2 hours after dosing, ten mice/group, read-out: effective dose to prevent convulsions in half the animals (ED50)): 64 mg/kg; ED50 (mice [3]; ip, 0.5 h, Example 2, intraperitoneal, sesame oil solution, 1/2 hour after dosing, ten mice/group, read-out: effective dose to prevent convulsions in half the animals (ED50)): 45 mg/kg; ED50 (mice [3]; ip, 1.5 h, Example 2, intraperitoneal, sesame oil solution, 11/2 hours after dosing, ten mice/group, read-out: effective dose to prevent convulsions in half the animals (ED50)): 52 mg/kg; ED50 (mice [3]; ip, Example 2, intraperitoneal, sesame oil solution, 1 hour after dosing, ten mice/group, read-out: effective dose to prevent convulsions in half the animals (ED50)): 65 mg/kg; ED50 (mice [3]; ip, Example 2, intraperitoneal, sesame oil solution, 2 hours after dosing, ten mice/group, read-out: effective dose to prevent convulsions in half the animals (ED50)): 51 mg/kg; ED50 (mice [3]; ip, Example 2, intraperitoneal, sesame oil solution, 3 hours after dosing, ten mice/group, read-out: effective dose to prevent convulsions in half the animals (ED50)): 70 mg/kg; ED50 (mice [3]; Example 2, oral, sesame oil solution, 1 hour after dosing, ten mice/group, read-out: effective dose to prevent convulsions in half the animals (ED50)): 86 mg/kg; ED50 (mice [3]; Example 2, oral, sesame oil solution, 2 hours after dosing, ten mice/group, read-out: effective dose to prevent convulsions in half the animals (ED50)): 82 mg/kg; ED50 (mice [3]; Example 2, oral, sesame oil solution, 3 hours after dosing, ten mice/group, read-out: effective dose to prevent convulsions in half the animals (ED50)): 90 mg/kg |
